Source: BindingDB's records for doi:10.1021/jm960794l (Institute of Cancer Research, 1997)

assay: Cytotoxicity in T79-A3 (NR-positive) cell lines

Compared with NC(=O)c1cc(N2CC2)c([N+](=O)[O-])cc1[N+](=O)[O-], NC(=O)c1cc(N(CCBr)CCBr)c([N+](=O)[O-])cc1[N+](=O)[O-] [5-(bis(2-bromoethyl)amino)-2,4-dinitrobenzamide] is 3.6-fold lower in IC50: 0.89 µM for the first, 0.25 µM for the second.

First: O=C(NCC(O)CO)c1cc(N(CCCl)CCCl)c([N+](=O)[O-])cc1[N+](=O)[O-] (stereo unspecified) [5-[Bis-(2-chloro-ethyl)-amino]-N-(2,3-dihydroxy-propyl)-2,4-dinitro-benzamide]
Second: O=C(NCC(O)CO)c1cc(N(CCI)CCI)c([N+](=O)[O-])cc1[N+](=O)[O-] (stereo unspecified) [5-(bis(2-iodoethyl)amino)-N-(2,3-dihydroxypropyl)-2,4-dinitrobenzamide]
The IC50 of the first is 47-fold higher: 89 µM for the first, 1.9 µM for the second.

Going from O=C(NCC(O)CO)c1cc([N+](=O)[O-])cc([N+](=O)[O-])c1N(CCI)CCI (stereo unspecified) [2-[Bis-(2-iodo-ethyl)-amino]-N-(2,3-dihydroxy-propyl)-3,5-dinitro-benzamide] to O=C(NCC(O)CO)c1cc([N+](=O)[O-])cc([N+](=O)[O-])c1N(CCCl)CCCl (stereo unspecified) [2-[Bis-(2-chloro-ethyl)-amino]-N-(2,3-dihydroxy-propyl)-3,5-dinitro-benzamide], the IC50 rises from 4 µM to 13 µM (3.2-fold).

Compared with CS(=O)(=O)CCN(CCCl)c1cc(C(N)=O)c([N+](=O)[O-])cc1[N+](=O)[O-] [5-[(2-Chloro-ethyl)-(2-methanesulfonyl-ethyl)-amino]-2,4-dinitro-benzamide], CS(=O)(=O)CCN(CCS(C)(=O)=O)c1cc(C(N)=O)c([N+](=O)[O-])cc1[N+](=O)[O-] [5-[Bis-(2-methanesulfonyl-ethyl)-amino]-2,4-dinitro-benzamide] is 2.7-fold higher in IC50: 3.4 µM for the first, 9.3 µM for the second. The first is the more potent here.

Going from NC(=O)c1cc([N+](=O)[O-])cc([N+](=O)[O-])c1N(CCI)CCI [2-[Bis-(2-iodo-ethyl)-amino]-3,5-dinitro-benzamide] to NC(=O)c1cc([N+](=O)[O-])cc([N+](=O)[O-])c1N(CCCl)CCCl [2-[Bis-(2-chloro-ethyl)-amino]-3,5-dinitro-benzamide], the IC50 rises from 0.1 µM to 7.5 µM (75-fold).

Going from NC(=O)c1cc(N(CCCl)CCCl)c([N+](=O)[O-])cc1[N+](=O)[O-] to NC(=O)c1cc(N(CCI)CCI)c([N+](=O)[O-])cc1[N+](=O)[O-] [5-(bis(2-iodoethyl)amino)-2,4-dinitrobenzamide], the IC50 falls from 15 µM to 0.23 µM (65-fold). The second is the more potent here.

Going from CN(C)CCNC(=O)c1c([N+](=O)[O-])ccc(N(CCCl)CCCl)c1[N+](=O)[O-] [3-[Bis-(2-chloro-ethyl)-amino]-N-(2-dimethylamino-ethyl)-2,6-dinitro-benzamide] to NC(=O)c1c([N+](=O)[O-])ccc(N(CCCl)CCCl)c1[N+](=O)[O-] [3-[Bis-(2-chloro-ethyl)-amino]-2,6-dinitro-benzamide], the IC50 rises from 895 µM to > 1000 µM. The first is the more potent here.

Compared with NC(=O)c1cc([N+](=O)[O-])cc([N+](=O)[O-])c1N(CCBr)CCBr [2-[Bis-(2-bromo-ethyl)-amino]-3,5-dinitro-benzamide], CS(=O)(=O)c1cc([N+](=O)[O-])c(C(N)=O)cc1N(CCCl)CCCl [5-[Bis-(2-chloro-ethyl)-amino]-4-methanesulfonyl-2-nitro-benzamide] is 310-fold higher in IC50: 0.19 µM for the first, 58 µM for the second. The first is the more potent here.
